From patent US12344606B2, “Next-generation modulators of stimulator of interferon genes (STING)” (RYVU THERAPEUTICS S.A., priority 2019, dated 2025)

Tests used:
[1] = tested on: CT26 murine colon carcinoma allografts; assay: In vivo anti-tumor efficacy in CT26 allografts; parameters: species or system female Balb/C mice; conditions: for efficacy of dose: once every fifth day x3, 10% Captisol in PBS
Method: The efficacy of Example 1 was evaluated in established CT26 murine colon carcinoma allografts in female Balb/C mice. Example 1 was formulated in 10% Captisol in PBS and administered intravenously, once every fifth day on three occasions. The solution was prepared fresh prior to each administration. […] In both treatment groups tumor growth delay was observed when compared to the control group. By the end of the study, on day 42, there were 3 and 6 complete responses recorded for mice treated at 2 and 3 mg/kg E5Dx3, respectively.

[2] = tested on: NF-κB pathway in THP-1 dual cells; assay: THP-1 Dual reporter assay, NF-κB pathway (SEAP); assay type: cell-based; conditions: Homo sapiens, THP1-Dual; 18 h stimulation, absorbance; read-out: THP1 Dual EC50 (μM) NFkB
Summary of the method: (§1)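 THP-1 dual reporter cells stimulated 18 h with STING agonist; culture medium then sampled. IRF activity read as ISG54/ISRE-driven luciferase luminescence; NF-κB activity read as SEAP absorbance at 630 nm (or 655 nm) after 2 h (or 1 h) at 37° C with detection medium.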

CT26 cells = assay: CT26 re-challenge study of mice with complete responses; assay type: in vivo, Balb/C mice
Method: Mice with complete responses were subjected to a re-challenge study. CT26 cells were injected into the flank opposite to an original site of inoculation. Naïve mice were included into the re-challenge study as a control of the tumor growth kinetics.

[3] = tested on: interferon regulatory factor (IRF) pathway in THP-1 dual cells; assay: THP-1 Dual reporter assay, IRF pathway (luciferase); assay type: cell-based; conditions: Homo sapiens, THP1-Dual; 18 h stimulation, luminescence
Summary of the method: as §1

human STING = human STING (Homo sapiens, UniProt Q86WV6); assay: Fluorescence Thermal Shift assay (hSTING FTS binding assay); conditions: STING 0.1 mg/ml, 20 min preincubation, SyproOrange
Summary of the method: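 STING protein (final 0.1 mg/ml) preincubated 20 min with compound in 50 mM Hepes, 150 mM NaCl, pH 7.5, then SyproOrange dye added. Thermal unfolding monitored by fluorescence from 25 to 99° C. at a continuous ramp of 0.033° C./s.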

Sequence of human STING (Q86WV6 whole entry H232R): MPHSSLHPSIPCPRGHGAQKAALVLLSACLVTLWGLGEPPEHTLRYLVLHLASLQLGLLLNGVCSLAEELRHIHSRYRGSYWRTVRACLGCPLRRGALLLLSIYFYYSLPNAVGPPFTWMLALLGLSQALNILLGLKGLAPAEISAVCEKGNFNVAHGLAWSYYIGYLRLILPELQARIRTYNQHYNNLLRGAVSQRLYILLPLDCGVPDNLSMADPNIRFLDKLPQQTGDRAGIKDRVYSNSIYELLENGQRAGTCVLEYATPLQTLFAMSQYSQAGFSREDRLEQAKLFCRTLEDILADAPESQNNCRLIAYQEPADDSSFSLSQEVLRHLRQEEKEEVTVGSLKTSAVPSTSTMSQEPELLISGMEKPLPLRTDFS

Structure (SMILES) | EC50 [2] [µM] | EC50 [3] [µM] | hSTING FTS binding assay (ΔT C.°) (human STING) | further results
Cc1ccc(N2CCC[C@H](N(Cc3ccnc(C)c3)Cc3cn(C4CC4)c4[nH]c(=O)c(F)cc4c3=O)C2)cn1 [Example 43, 1-cyclopropyl-6-fluoro-7-hydroxy-3-({[(3S)-1-(6-methylpyridin-3-yl)piperidin-3-yl][(2-methylpyridin-4-yl)methyl]amino}methyl)-1,4-dihydro-1,8-naphthyridin-4-one] | ≥ 10 | ≥ 10 | ++ (ΔTm>10° C.) | 
Cc1ccc(N2CCC[C@H](N(Cc3ccnc(C)c3)Cc3cn(C)c4cc(N5CCNCC5=O)ccc4c3=O)C2)cn1 [Example 49, 1-methyl-3-({[(3S)-1-(6-methylpyridin-3-yl)piperidin-3-yl][(2-methylpyridin-4-yl)methyl]amino}methyl)-7-(2-oxopiperazin-1-yl)-1,4-dihydroquinolin-4-one] | ≥ 10 | ≥ 10 | + (ΔTm<10° C.) | 
Cc1ccc(N2CCC[C@H](N(Cc3ccnc(C)c3)Cc3cn(CC(=O)O)c4ccccc4c3=O)C2)cn1 [Example 51, 2-[3-({[(3S)-1-(6-Methylpyridin-3-yl)piperidin-3-yl][(2-methylpyridin-4-yl)methyl]amino}methyl)-4-oxo-1,4-dihydroquinolin-1-yl]acetic acid] | ≥ 10 | ≥ 10 | ++ (ΔTm>10° C.) | 
Cc1cc(CN(Cc2cn(C)c3ccccc3c2=O)[C@H]2CCCN(c3nnc(C)o3)C2)ccn1 [Example 53, 1-methyl-3-({[(3S)-1-(5-methyl-1,3,4-oxadiazol-2-yl)piperidin-3-yl][(2-methylpyridin-4-yl)methyl]amino}methyl)-1,4-dihydroquinolin-4-one] | 1 to 10 | ≥ 10 | + (ΔTm<10° C.) | 
Cn1cc(CN(Cc2ccns2)[C@H]2CCCN(c3cccnc3)C2)c(=O)c2ccccc21 [Example 55, 1-methyl-3-({[(3S)-1-(pyridin-3-yl)piperidin-3-yl][(1,2-thiazol-5-yl)methyl]amino}methyl)-1,4-dihydroquinolin-4-one] | ≥ 10 | ≥ 10 | + (ΔTm<10° C.) | 
Cc1ccc(N2CCC[C@H](N(Cc3ccnc(C)c3)Cc3cn(C4CC4)c4cc(Cl)ncc4c3=O)C2)cn1 [Example 56, 7-chloro-1-cyclopropyl-3-({[(3S)-1-(6-methylpyridin-3-yl)piperidin-3-yl][(2-methylpyridin-4-yl)methyl]amino}methyl)-1,4-dihydro-1,6-naphthyridin-4-one] | 1 to 10 | ≤ 1 | + (ΔTm<10° C.) | 
Cc1ccc(N2CCC[C@H](N(Cc3ccnc(C)c3)Cc3cn(C4CC4)c4cc(O)c(F)cc4c3=O)C2)cn1 [Example 59, 1-cyclopropyl-6-fluoro-7-hydroxy-3-({[(3S)-1-(6-methylpyridin-3-yl)piperidin-3-yl][(2-methylpyridin-4-yl)methyl]amino}methyl)-1,4-dihydroquinolin-4-one] | 1 to 10 | ≤ 1 | ++ (ΔTm>10° C.) | 

The next lines start with results.

EC50 [2] [µM] | EC50 [3] [µM] | hSTING FTS binding assay (ΔT C.°) (human STING) | Structure (SMILES) | further results
≤ 1 | ≤ 1 | ++ (ΔTm>10° C.) | COc1cc(CN(Cc2cn(C)c3ccccc3c2=O)[C@H]2CCCN(c3cccnc3)C2)ccn1 [Example 1, 3-({[(2-methoxypyridin-4-yl)methyl][(3S)-1-(pyridin-3-yl)piperidin-3-yl]amino}methyl)-1-methyl-1,4-dihydroquinolin-4-one] | TGI (tumor growth inhibition) ([1]; 2 mg/kg E5Dx3, 11th day): 52%; complete responses (number of mice) ([1]; 2 mg/kg E5Dx3, day 42): 3; efficacy of dose ([1]; 2 mg/kg i.v.): moderately efficacious dose; TGI (tumor growth inhibition) ([1]; 3 mg/kg E5Dx3, 11th day): 80%; complete responses (number of mice) ([1]; 3 mg/kg E5Dx3, day 42): 6; efficacy of dose ([1]; 3 mg/kg i.v.): full efficacious dose; mice that developed tumors on re-challenge (CT26 cells; six mice with complete responses dosed previously at 3 mg/kg, substantial delay in tumor growth): two of them developed a tumor; mice that developed tumors on re-challenge (CT26 cells; three mice with complete responses dosed previously at 2 mg/kg): none of them developed tumors
≤ 1 | ≤ 1 | ++ (ΔTm>10° C.) | Cc1ccc(N2CCC[C@H](N(Cc3ccnc(C)c3)Cc3cn(C4CC4)c4nc(Cl)c(F)cc4c3=O)C2)cn1 [Example 42, 7-chloro-1-cyclopropyl-6-fluoro-3-({[(3S)-1-(6-methylpyridin-3-yl)piperidin-3-yl][(2-methylpyridin-4-yl)methyl]amino}methyl)-1,4-dihydro-1,8-naphthyridin-4-one] | 
≤ 1 | ≤ 1 | ++ (ΔTm>10° C.) | COc1nc2c(cc1F)c(=O)c(CN(Cc1ccnc(C)c1)[C@H]1CCCN(c3ccc(C)nc3)C1)cn2C1CC1 [Example 44, 1-cyclopropyl-6-fluoro-7-methoxy-3-({[(3S)-1-(6-methylpyridin-3-yl)piperidin-3-yl][(2-methylpyridin-4-yl)methyl]amino}methyl)-1,4-dihydro-1,8-naphthyridin-4-one] | 
≤ 1 | ≤ 1 | ++ (ΔTm>10° C.) | COc1cc2c(cc1F)c(=O)c(CN(Cc1ccnc(C)c1)[C@H]1CCCN(c3ccc(C)nc3)C1)cn2C1CC1 [Example 45, 1-cyclopropyl-6-fluoro-7-methoxy-3-({[(3S)-1-(6-methylpyridin-3-yl)piperidin-3-yl][(2-methylpyridin-4-yl)methyl]amino}methyl)-1,4-dihydroquinolin-4-one] | 
≤ 1 | ≤ 1 | ++ (ΔTm>10° C.) | Cc1ccc(N2CCC[C@H](N(Cc3ccnc(C)c3)Cc3cn(C4CC4)c4cc(N5CCN[C@H](C)C5)c(F)cc4c3=O)C2)cn1 [Example 46, 1-cyclopropyl-6-fluoro-7-[(3R)-3-methylpiperazin-1-yl]-3-({[(3S)-1-(6-methylpyridin-3-yl)piperidin-3-yl][(2-methylpyridin-4-yl)methyl]amino}methyl)-1,4-dihydroquinolin-4-one] | 
≤ 1 | ≤ 1 | ++ (ΔTm>10° C.) | Cc1ccc(N2CCC[C@H](N(Cc3ccnc(C)c3)Cc3cn(C4CC4)c4cc(N5CCNCC5)c(F)cc4c3=O)C2)cn1 [Example 47, 1-cyclopropyl-6-fluoro-3-({[(3S)-1-(6-methylpyridin-3-yl)piperidin-3-yl][(2-methylpyridin-4-yl)methyl]amino}methyl)-7-(piperazin-1-yl)-1,4-dihydroquinolin-4-one] | 
≤ 1 | ≤ 1 | ++ (ΔTm>10° C.) | Cc1ccc(N2CCC[C@H](N(Cc3ccnc(C)c3)Cc3cn(C4CC4)c4cc(N5CCN(CC(F)F)CC5)c(F)cc4c3=O)C2)cn1 [Example 48, 1-cyclopropyl-7-[4-(2,2-difluoroethyl)piperazin-1-yl]-6-fluoro-3-({[(3S)-1-(6-methylpyridin-3-yl)piperidin-3-yl][(2-methylpyridin-4-yl)methyl]amino}methyl)-1,4-dihydroquinolin-4-one] | 
≤ 1 | ≤ 1 | ++ (ΔTm>10° C.) | Cc1ccc(N2CCC[C@H](N(Cc3ccnc(C)c3)Cc3cn(C4COC4)c4ccccc4c3=O)C2)cn1 [Example 50, 3-({[(3S)-1-(6-methylpyridin-3-yl)piperidin-3-yl][(2-methylpyridin-4-yl)methyl]amino}methyl)-1-(oxetan-3-yl)-1,4-dihydroquinolin-4-one] | 
≤ 1 | ≤ 1 | ++ (ΔTm>10° C.) | Cc1ccc(N2CCC[C@H](N(Cc3ccnc(C)c3)Cc3cn(C4CC4)c4cc(N5CCNC6(CC6)C5)c(F)cc4c3=O)C2)cn1 [Example 52, 1-cyclopropyl-7-{4,7-diazaspiro[2.5]octan-7-yl}-6-fluoro-3-({[(3S)-1-(6-methylpyridin-3-yl)piperidin-3-yl][(2-methylpyridin-4-yl)methyl]amino}methyl)-1,4-dihydroquinolin-4-one] | 
≤ 1 | ≤ 1 | ++ (ΔTm>10° C.) | Cc1ccc(N2CCC[C@H](N(Cc3ccnc(C)c3)Cc3c[nH]c4ccccc4c3=O)C2)cn1 [Example 58, 3-({[(3S)-1-(6-methylpyridin-3-yl)piperidin-3-yl][(2-methylpyridin-4-yl)methyl]amino}methyl)-1,4-dihydroquinolin-4-one] | 
